Patent US20240024350A1, “ANTI-CANCER COMPOSITION CONTAINING AURANOFIN AND MERCAPTO COMPOUND AND USE THEREOF” (SUN YAT-SEN UNIVERSITY, priority 2020, published 2024)

How the values were obtained:
[1] = system: HCT116 human colon cancer cells; assay: MTT colorimetric proliferation / cell survival assay, HCT116; details: for Cell survival rate (%): compound alone, others not given; for Cell survival rate (%) / Cell survival rate after addition of 10 μM auranofin (%): with 30% FBS, 50 μM for TGTA, β-mercaptoethanol, mercaptoethylamine, DEDT; for Cell survival rate after addition of 10 μM auranofin (%): compound plus 10 μM auranofin, listed as Auranofin = auranofin alone
TrxR = assay: Intracellular TrxR activity in HepG2 cells (DTNB reduction); type: cell-based, human; details: mercapto compound alone 200 μM, 30% FBS
Description: HepG2 cells were used as a test subject.
The cells were inoculated into a 6-well plate at 2×10^5 cell/well and incubated for 24 h.
After the incubation, the cell culture medium was replaced with 30% FBS to simulate the high concentration mercapto environment under the normal physiological condition, and used as a control (without adding any reagents). The experimental group was added with 0.5 μM of auranofin for incubation at 37° C. for 30 min, and then added with the mercapto compound (DEDT, β-mercaptoethanol or mercaptoethylamine) for incubation for 30 min (final concentration of DMSO in the system was ≤1%). The incubated cells were washed for 3 times with PBS, added with 100 μL of icy lysis buffer (containing 50 mM of phosphate buffer with pH 7.4, 1 mM EDTA, and 0.10% Triton-X 100), and then lysed on ice for 5 min to collect the cell lysate.
100 μL of buffer (containing 50 mM of potassium phosphate with pH 7.4, 1 mM EDTA, and 0.2 mM NADPH) was added to the collected cell lysate (10 μg protein), 5,5′-dithiobis (2-nitrobenzoic acid) (DTNB, with a final concentration of 3 mM) was added to initiate a reaction, and the activity of TrxR was obtained on the basis of the increased OD value in 10 minutes (OD detection wavelength was 410 nm). Auranofin alone was the positive control sample, and the blank group was the negative control.

[2] = system: HepG-2 human liver cancer cells; assay: MTT colorimetric proliferation / cell survival assay, HepG-2; type: cell-based; details: Liver cancer; TGTA 50 μM
Description: (§1) A flask with the cancer cells required for the experiment, with an original culture solution discarded, was washed for three times with 2 mL of PBS, 1 mL of pancreatin was added for digestion for 30 s, and 2 mL of a medium was added to terminate the digestion. The cells were transferred to a centrifuge tube and centrifuged at 1000 rpm for 3 min, the supernatant was discarded, and 2 mL of a medium was added and blew 10 times to be mixed uniformly. 10 μL of a cell suspension was taken for cell counting, and spread on a 96-well plate, with 5000 cells per well and 3 duplications for each compound, and then the number of cells and cell wells was calculated. The amount of required cell suspension and the number of cells for medium dilution were calculated by cell counting. 100 μL of medium was plated with 5000 cells per well, pipetted and mixed uniformly, and the cells were inoculated using a volley, placed in an incubator for culture, and marked.
(§2) (2) The cells cultured in step (1) was taken, and discarded with the original medium. Auranofin mother liquor was diluted to a diluent with final concentrations of 0, 0.78125, 1.5625, 3.125, 6.25, 12.5, 25, 50 and 100 μM, and mixed uniformly. A volley (using 3 wells) was used to draw 100 μL of dilution per well, a 96-well plate was tilted, diluents with each concentration were added in sequence to the corresponding 3 marked wells carefully to prevent poking the cells, blown and sucked about 3 times to be mixed uniformly, marked, shaken for 3 times, and put into a CO2 incubator for culture. The above steps were repeated for each auranofin diluent.
(§3) After auranofin was added for culture for 1 hour, the mother liquor of the mercapto compound was diluted into […] and mixed uniformly. A volley (using 3 wells) was used to suck 20 μL of diluent per well, the 96-well plate was tilted, the diluents of different mercapto compounds were added in sequence to the corresponding 3 marked wells carefully to prevent poking the cells, blown and sucked about 3 times to be mixed uniformly, and put back to the incubator to continue culture.
(§4) After different mercapto compounds were added to cells for 24 h, 20 μL of MTT (with a concentration of 5 mg/mL in PBS) per well was added to the 96-well plate by a volley; and incubation was carried out at 37° C. for 4 h. At the end of incubation, the MTT mixture was sucked out, and DMSO was added at 130 μL/well using a volley.
(§5) According to the results of Table 1-2, the killing effect of auranofin in combination with various compounds (with 30% FBS) on HCT116 human colon cancer cells and the killing effect of the auranofin-TGTA (50 μM) in combination with other cancer cells (lung cancer, colon cancer, breast cancer, liver cancer, cervical cancer and gastric cancer cells) were further detected by using the same method as the above.

[3] = system: A549 human lung cancer cells; assay: MTT colorimetric proliferation / cell survival assay, A549; type: cell-based; details: Lung cancer; TGTA 50 μM
Description: as §1, §2, §3, §4, §5

[4] = system: MCF-7 human breast cell cancer cells; assay: MTT colorimetric proliferation / cell survival assay, MCF-7; type: cell-based; details: breast cancer; TGTA 50 μM
Description: as §1, §2, §3, §4, §5

[5] = system: PC9 human lung cancer cells; assay: MTT cell survival assay, PC9; type: cell-based; details: TGTA 50 μM
Description: as §1, with “marked. […]” for “marked.”
as §5

PCGR lung cancer cells = assay: MTT cell survival assay, PCGR; type: cell-based; details: TGTA 50 μM
Description: as §1, with “marked. […]” for “marked.”
as §5

[6] = system: Hela human cervical cancer cells; assay: MTT cell survival assay, Hela; type: cell-based; details: TGTA 50 μM
Description: as §1, with “marked. […]” for “marked.”
as §5

[7] = system: MGC803 human gastric cancer cells; assay: MTT cell survival assay, MGC803; type: cell-based; details: TGTA 50 μM
Description: as §1, with “marked. […]” for “marked.”
as §5

Compound | Cell survival rate (%) [1] | Cell survival rate after addition of 10 μM auranofin (%) [1] | Activity of TrxR (TrxR) | other results
O[C@H](CS)[C@H](O)CS (racemic) [Dithiothreitol (DTT), Dithiothreitol] | 102 ± 4% | 88 ± 6% | – | –
NCCS [mercaptoethylamine, mercaptoethanamine] | 105 ± 7% | 85 ± 3% | 118.2% | –
CC(=O)N[C@@H](CS)C(=O)O [N-acetylcysteine (NAC), N-acetylcysteine] | 100 ± 6% | 77 ± 17% | – | –
CC(=O)OC[C@H]1O[C@@H](S)[C@H](OC(C)=O)[C@@H](OC(C)=O)[C@@H]1OC(C)=O [TGTA, 1-thio-β-D-glucose tetraacetate] | 97 ± 5% | 18 ± 2% | – | Cell survival rate (%) HepG2 [2]: 104 ± 4%; Cell survival rate (%) A549 [3]: 104 ± 6%; Cell survival rate (%) MCF-7 [4]: 99 ± 3%; Cell survival rate (%) PC9 [5]: 104 ± 2%; Cell survival rate (%) PCGR (PCGR lung cancer cells): 101 ± 3%; Cell survival rate (%) Hela [6]: 87 ± 6%; Cell survival rate (%) MGC803 [7]: 104 ± 9%; Cell survival rate (%) HCT116 ([1]; colon cancer, TGTA 50 μM): 97 ± 5%
OCCS [β-mercaptoethanol] | 96 ± 15% | 55 ± 4% | 127.3% | –
CCN(CC)C(=S)[S-].[Na+] [DEDT, Sodium diethyldithiocarbamate] | 78 ± 10% | 0.9 ± 1.6% | 88.6% | –
